Test results from patent US20030203969A1, “Pharmaceutically active aromatic guanylhydrazones” (priority 2000, published 2003).

Experiments:
[1] = system: NRTI + PI-resistant HIV-1; experiment: Inhibition of multiple anti-retroviral drug resistant HIV-1 strains: NRTI + PI-resistant; type: cell-based
Procedure: In addition, various different “types” of multiple anti-retroviral drug resistant HIV-1 strains were also tested: […]

HHV8 = experiment: HHV-8 replication in TPA-induced BCBL-1 cells (TaqMan PCR); type: cell-based, Human herpesvirus 8
Procedure: The human BCBL-1 cell line is available through the AIDS Reference and Reagent Program (Cat.No. 3233). This cell line was derived from a body cavity-based lymphoma latently infected with HHV-8. Culturing these cells in the presence of phorbol ester induces a lytic infection cycle, resulting in the release of viral particles into the medium. Compound efficacy in this proposed assay is determined using TaqMan PCR technology, and compound toxicity is measured by addition of Promega's Cell Titer Aqueous One Solution (metabolic dye).
7. BCBL-1 cells will be counted by the trypan blue dye exclusion method, and the cell count/ml will be determined. Cells will be pelleted by centrifugation and washed once with PBS to minimize the basal level of virus released from untreated cells which spontaneously enter the lytic cycle and release virus.
8. Cells will be resuspended in fresh media and adjusted to the appropriate cell density. Cells will then be plated in the interior wells of 96-well round-bottom microtiter plates in a volume of 50 μl per well.
9. […]
11. A standard curve prepared from known copy numbers of DNA isolated from BCBL-1 cells and amplified will be run with each plate in order to quantitate the DNA copy number in each original sample. The efficacy of the compound will be determined by comparing DNA copy numbers from test wells with those of control wells.

Vero cells = system: Vero cells
Procedure: A cytoprotection assay procedure using MTS is employed to evaluate compounds for antiviral activity against Respiratory Syncytial Virus (Long) in Vero (African green monkey, ATCC Cat. No. CCL-81) cells. The cells are pre-grown overnight at 37° C. (2×10^4/well in 96 well tissue culture plates) with 10% fetal Bovine serum containing Minimum Essential Medium. The positive control for the assay is Interferon-Gamma/Ribavirin. The infection medium contains reduced serum levels (2% FBS).
Using half log dilutions with high test starting at 100 μg/ml the drug dilutions are made and added to triplicate cultures in 0.1 ml volume and pre-titrated virus suspension is also added in 0.1 ml volume. […] CPE inhibition is determined by dye uptake procedure (Celltiter-MTS). […] The amount of soluble formazan produced by cellular reduction of the MTS is measured by the absorbance at 490 nm. The quantity of formazan product as measured by the amount of 490 nm absorbance is directly proportional to the number of living cells in the culture thus allowing the rapid quantitative analysis of the inhibition of virus-induced cell killing by the test substances. […]
The inhibitory drug concentration which reduces the viral replication by 95% (IC95) and the minimum drug concentration which inhibits cell growth by 95% (TC95) are calculated by using a regression analysis program for semilog curve fitting. […]

CC(=NNC(=N)N)c1cc(NC(=O)CCCCCCCCC(=O)Nc2cc(C(C)=NNC(=N)N)cc(C(C)=NNC(=N)N)c2)cc(C(C)=NNC(=N)N)c1 [Compound 4, N,N′-bis (3,5-diacetylphenyl) decane diamide tetrakis (amidinohydrazone)]
[%] inhibition of virus replication ([1]; NRTI + PI-resistant HIV-1, 0.5 μM): 68%
[%] inhibition of virus replication ([1]; NRTI + PI-resistant HIV-1, 1.0 μM): 73%
Comments (HHV8; HHV8, BCBL-1 cells): Active
IC50 (HHV8; chronically HHV8-infected BCBL-1 cells): 2.3 µM
CC50 (Vero cells): 8.68 µM
TC95 (Vero cells): 30.20 µM
